Data: patent US20130243707A1, “TOPICAL COMPOSITIONS” (priority 2006, published 2013)

Columns and labels:
[1] = Super-solvent water effect (maximum water before NSAID precipitates); type: physicochemical; conditions: for Super-solvent Effect: in %
Procedure: Methods. […] These amounts are chosen based upon the solubility of one gram of NSAID and the amount of the single solvent alcohol for saturation. Next, water was added in step-wise manner to determine the maximum amount that can be added before any visible amount of the NSAID precipitated (i.e., the volume of water that can be added and yet remain single phasic).

[2] = cited from earlier work
[3] = Solubility of Drugs in single solvent alcohols; type: physicochemical
Procedure: Briefly, the indicated NSAID was weighed and added to a beaker. To each beaker, incremental amounts of the indicated solvent was weighed and added. The beakers were sealed with aluminum foil and placed at room temperature or in a 35 C water bath for 20-30 minutes. They beakers were shaken frequently to mix the contents. After 20-30 minutes the solvent alcohols were examined. If a single phasic solution was not yet achieved, an additional aliquot of the solvent was added and the cycle was repeated until complete solvation had occurred.

[4] = cited from earlier work; remark: listed apart in the source
[5] = tested on: proliferation of lymphocytes in the draining lymph nodes; assay: Local lymph node stimulation assay; type: in vivo, CBA/J female mice; conditions: positive control
Procedure: Compositions of Example 39 are subjected to a local lymph node stimulation assay in CBA/J female mice to determine if present compositions produce a hypersensitivity response as measured by the proliferation of lymphocytes in the draining lymph nodes. Ten groups of 5 mice each are used. Five groups are treated on the dorsal surface of both ears once per day for 3 days the compositions or with a positive control (35% hexylcinnamaldehyde (HCA)). On Day 6, the mice are injected intravenously (IV) with 20 μCi of ^3H-thymidine in sterile saline. Five hours later the mice are euthanized and the draining auricular lymph nodes are removed. […] A three-fold or greater increase in proliferative activity relative to the concurrent vehicle-treated control is considered a positive response. […] Since both of these stimulation indices are greater than 3, the positive controls indeed produced a positive response.

[6] = Prodrug (ester) formation upon storage, HPLC; type: physicochemical; conditions: for rate of prodrug generation: 2% propylene glycol, linear for at least the first 26 days
Procedure: Next, the peak was characterized in terms of retention position, UV spectrum and mass spectroscopy response. In addition, isolates of the peak were collected from the chromatograph system employed for liquid chromatography-mass spectroscopy. […] The solution was centrifuged and the supernatant collected for analysis. Chromatography was conducted as follows: • Pumps: Hewlett Packard Model 1100 Binary Systems • Solvent A: Water • Solvent B: Acetonitrile • Gradient: […] Sequential detection was performed by UV absorbance using an HP diode array detector followed by ESI-MS […] using a Sciex O-Star/Pulsar quadrupole-TOF mass spectrometer operating in either the positive and negative ion modes. […] At acidic pH (e.g. […]), prodrug formation was relatively independent of Drug concentration. However, at pH 5, prodrug formation seemed to be first order (i.e. dependant upon the Drug concentration).

[7] = Flurbiprofen 2 gm, EtOH 2 gm, IPA 3 gm
[8] = Flurbiprofen 2 gm, PEG 2 gm, EtOH 2 gm
[9] = Flurbiprofen 2 gm, PEG 2 gm, IPA 3 gm
[10] = Flurbiprofen 2 gm, PG 6 gm, EtOH 2 gm
[11] = Flurbiprofen 2 gm, PG 6 gm, IPA 3 gm
[12] = Flurbiprofen 2 gm, PG 6 gm, PEG 2 gm
[13] = Flurbiprofen 3 gm, PEG 2 gm, EtOH 2 gm, IPA 3 gm
[14] = Flurbiprofen 3 gm, PG 6 gm, EtOH 2 gm, IPA 3 gm
[15] = Flurbiprofen 3 gm, PG 6 gm, PEG 2 gm, EtOH 2 gm
[16] = Flurbiprofen 3 gm, PG 6 gm, PEG 2 gm, IPA 3 gm
[17] = Flurbiprofen 4 gm, PG 6 gm, PEG 2 gm, EtOH 2 gm, IPA 3 gm

Compound: CC(C(=O)O)c1ccc(-c2ccccc2)c(F)c1 (stereo not shown) [Flurbiprofen]
- Flurbiprofen % W/W ([1]; Flurbiprofen 1 gm, EtOH 2 gm): 20.0 % W/W
- Water Observed ([1]; Flurbiprofen 1 gm, EtOH 2 gm): 2 gm
- Flurbiprofen % W/W ([1]; Flurbiprofen 1 gm, IPA 3 gm): 14.3 % W/W
- Water Observed ([1]; Flurbiprofen 1 gm, IPA 3 gm): 3 gm
- Flurbiprofen % W/W ([1]; Flurbiprofen 1 gm, PEG 2 gm): 25.0 % W/W
- Water Observed ([1]; Flurbiprofen 1 gm, PEG 2 gm): 1 gm
- Flurbiprofen % W/W ([1]; Flurbiprofen 1 gm, PG 6 gm): 12.5 % W/W
- Water Observed ([1]; Flurbiprofen 1 gm, PG 6 gm): 1 gm
- Flurbiprofen % W/W [1, 7]: 18.2 % W/W
- Super-solvent Effect [1, 7]: 37.1
- Flurbiprofen % W/W [1, 8]: 25.0 % W/W
- Super-solvent Effect [1, 8]: 0.0
- Flurbiprofen % W/W [1, 9]: 15.4 % W/W
- Super-solvent Effect [1, 9]: 135.7
- Flurbiprofen % W/W [1, 10]: 12.5 % W/W
- Super-solvent Effect [1, 10]: 160.0
- Flurbiprofen % W/W [1, 11]: 11.8 % W/W
- Super-solvent Effect [1, 11]: 104.5
- Flurbiprofen % W/W [1, 12]: 14.3 % W/W
- Super-solvent Effect [1, 12]: 140.0
- Flurbiprofen % W/W [1, 13]: 18.8 % W/W
- Super-solvent Effect [1, 13]: 60.0
- Flurbiprofen % W/W [1, 14]: 13.6 % W/W
- Super-solvent Effect [1, 14]: 90.5
- Flurbiprofen % W/W [1, 15]: 17.6 % W/W
- Super-solvent Effect [1, 15]: 30.8
- Flurbiprofen % W/W [1, 16]: 13.6 % W/W
- Super-solvent Effect [1, 16]: 117.1
- Flurbiprofen % W/W [1, 17]: 15.4 % W/W
- Super-solvent Effect [1, 17]: 81.5
- pKa [2]: 4.14
- Maximum Drug Concentration in single alcohol: EtOH ([3]; Solubility at 35 C): 33.33
- Maximum Drug Concentration in single alcohol: IPA ([3]; Solubility at 35 C): 25.00
- Maximum Drug Concentration in single alcohol: PEG ([3]; Solubility at 35 C): 33.33
- Maximum Drug Concentration in single alcohol: PG ([3]; Solubility at 35 C): 14.29
- Maximum Drug Concentration in single alcohol: EtOH ([3]; Solubility at Room Temperature): 16.67
- Maximum Drug Concentration in single alcohol: IPA ([3]; Solubility at Room Temperature): 14.29
- Maximum Drug Concentration in single alcohol: PEG ([3]; Solubility at Room Temperature): 12.50
- Maximum Drug Concentration in single alcohol: PG ([3]; Solubility at Room Temperature): 6.25
- Log P [4]: 4.16

Compound: CCCCCC/C(C=O)=C\c1ccccc1 [HCA, hexylcinnamaldehyde]
- stimulation index ([5]; 35% HCA in ISW-AP-01 placebo): 4.6
- stimulation index ([5]; 35% HCA in ethanol): 4.4

Compound: CC(C)Cc1ccc(C(C)C(=O)O)cc1 (stereo not shown) [Ibuprofen]
- Super-solvent Effect on water ([1]; Ibuprofen 2 gm, EtOH 1 gm, IPA 1.1 gm): 11.4%
- Super-solvent Effect on water ([1]; Ibuprofen 2 gm, PEG 3 gm, EtOH 1 gm): 45.9%
- Super-solvent Effect on water ([1]; Ibuprofen 2 gm, PEG 3 gm, IPA 1.1 gm): 55%
- Super-solvent Effect on water ([1]; Ibuprofen 2 gm, PG 4 gm, EtOH 1 gm): 65.8%
- Super-solvent Effect on water ([1]; Ibuprofen 2 gm, PG 4 gm, IPA 1.1 gm): 65.3%
- Super-solvent Effect on water ([1]; Ibuprofen 2 gm, PG 4 gm, PEG 3 gm): 56%
- Super-solvent Effect on water ([1]; Ibuprofen 3 gm, PEG 3 gm, EtOH 1 gm, IPA 1.1 gm): 40.4%
- Super-solvent Effect on water ([1]; Ibuprofen 3 gm, PG 4 gm, EtOH 1 gm, IPA 1.1 gm): 63.2%
- Super-solvent Effect on water ([1]; Ibuprofen 3 gm, PG 4 gm, PEG 3 gm, EtOH 1 gm): 57.5%
- Super-solvent Effect on water ([1]; Ibuprofen 3 gm, PG 4 gm, PEG 3 gm, IPA 1.1 gm): 57.2%
- Maximum Drug Concentration in single alcohol: EtOH ([3]; Solubility at 35 C): 50.00
- Maximum Drug Concentration in single alcohol: IPA ([3]; Solubility at 35 C): 47.62
- Maximum Drug Concentration in single alcohol: PEG ([3]; Solubility at 35 C): 25.00
- Maximum Drug Concentration in single alcohol: PG ([3]; Solubility at 35 C): 20.00
- Maximum Drug Concentration in single alcohol: EtOH ([3]; Solubility at Room Temperature): 37.04
- Maximum Drug Concentration in single alcohol: IPA ([3]; Solubility at Room Temperature): 35.71
- Maximum Drug Concentration in single alcohol: PEG ([3]; Solubility at Room Temperature): 22.22
- Maximum Drug Concentration in single alcohol: PG ([3]; Solubility at Room Temperature): 15.38
- prodrug generation upon storage (HPLC) ([6]; composition of 15% ibuprofen, about 60% ethanol, 3% glycerin, 2% propylene glycol stored for 3 months at 25 C): A new peak (i.e., the prodrug) distinct from the ibuprofen peak was detected
- effect of Drug concentration and pH on prodrug generation ([6]; compositions of ibuprofen with ethanol as solvent (FIG. 7)): higher pH (e.g. 5.0) substantially decreases the rate of prodrug formation
- rate of prodrug generation ([6]; pH 3.7, composition of 15% ibuprofen, about 60% ethanol, 3% glycerin): approximately 0.05 % per day
- rate of prodrug generation ([6]; pH 5, composition of 15% ibuprofen, about 60% ethanol, 3% glycerin): about 0.025 % per day
